According to ChEMBL document CHEMBL4028834, “Stereoselective synthesis of enantiopure N-substituted pyrrolidin-2,5-dione derivatives by 1,3-dipolar cycloaddition and assessment of their in vitro antioxidant and antibacterial activities” (Bioorg Med Chem Lett, 2017):
Values after ≈ are worked out from the molar mass of the structure shown. Active and inactive are the calls of the source. No cut-off for these calls is given here.

Columns and labels:
[1] = test system: Listeria monocytogenes; test: Antibacterial activity against Listeria monocytogenes after 24 hrs by MTT dye based microdilution method; assay type: functional
[2] = test system: Bacillus cereus; test: Antibacterial activity against Bacillus cereus JN934390 assessed as diameter of inhibition zone at 125 mg/ml by agar well diffusion method; assay type: functional; conditions: read-out: DIZ
[3] = test system: Salmonella enteritidis; test: Antibacterial activity against Salmonella enterica serotype Enteritidis ATCC 43972 after 24 hrs by MTT dye based microdilution method; assay type: functional, Salmonella enterica subsp. enterica serovar Enteritidis; conditions: ATCC 43972, 24 h
[4] = Antioxidant activity assessed as DPPH free radical scavenging activity incubated for 20 mins in dark; assay type: functional
[5] = Antioxidant activity assessed as DPPH free radical scavenging activity at 2 mg/ml incubated for 20 mins in dark (reference value: 1 to 9%); assay type: functional
[6] = Antioxidant activity assessed as DPPH free radical scavenging activity at 1 mg/ml incubated for 20 mins in dark (reference value: 1 to 9%); assay type: functional
[7] = Antioxidant activity assessed as DPPH free radical scavenging activity at 3 mg/ml incubated for 20 mins in dark (reference value: 1 to 9%); assay type: functional
[8] = Antioxidant activity assessed as reduction in beta-carotene/linoleic acid bleaching activity at 3 mg/ml after 2 hrs by spectrophotometric method (reference value: 1 to 8%); assay type: functional; design: scale not given: the % may be the effect or the level left
[9] = Antioxidant activity assessed as ABTS radical scavenging activity incubated for 2 hrs in dark by spectrophotometric analysis; assay type: functional
[10] = Antioxidant activity assessed as reduction in beta-carotene/linoleic acid bleaching activity after 2 hrs by spectrophotometric method; assay type: functional
[11] = Antioxidant activity assessed as reduction in beta-carotene/linoleic acid bleaching activity at 1 mg/ml after 2 hrs by spectrophotometric method (reference value: 1 to 8%); assay type: functional; design: scale not given: the % may be the effect or the level left
[12] = test system: Staphylococcus aureus; test: Antibacterial activity against Staphylococcus aureus ATCC 6538 after 24 hrs by MTT dye based microdilution method; assay type: functional; conditions: ATCC 6538, 24 h
[13] = Antioxidant activity assessed as ABTS radical scavenging activity at 0.5 mg/ml incubated for 2 hrs in dark by spectrophotometric analysis (reference value: 1 to 9 %); assay type: functional
[14] = test system: Listeria monocytogenes; test: Antibacterial activity against Listeria monocytogenes assessed as diameter of inhibition zone at 125 mg/ml by agar well diffusion method; assay type: functional; conditions: read-out: DIZ
[15] = Antioxidant activity assessed as ABTS radical scavenging activity at 3 mg/ml incubated for 2 hrs in dark by spectrophotometric analysis (reference value: 1 to 9%); assay type: functional
[16] = Antioxidant activity assessed as DPPH free radical scavenging activity at 0.5 mg/ml incubated for 20 mins in dark (reference value: 1 to 9 %); assay type: functional
[17] = test system: Bacillus subtilis; test: Bactericidal activity against Bacillus subtilis JN934392 after 48 hrs by MTT dye based microdilution method; assay type: functional; conditions: JN934392, 48 h
[18] = Antioxidant activity assessed as ABTS radical scavenging activity at 2.5 mg/ml incubated for 2 hrs in dark by spectrophotometric analysis (reference value: 1 to 9%); assay type: functional
[19] = test system: Staphylococcus aureus; test: Antibacterial activity against Staphylococcus aureus ATCC 6538 assessed as diameter of inhibition zone at 125 mg/ml by agar well diffusion method; assay type: functional; conditions: read-out: DIZ
[20] = test system: Bacillus subtilis; test: Antibacterial activity against Bacillus subtilis JN934392 after 24 hrs by MTT dye based microdilution method; assay type: functional; conditions: JN934392, 24 h
[21] = test system: Salmonella enteritidis; test: Antibacterial activity against Salmonella enterica serotype Enteritidis ATCC 43972 assessed as diameter of inhibition zone at 125 mg/ml by agar well diffusion method; assay type: functional, Salmonella enterica subsp. enterica serovar Enteritidis; conditions: read-out: DIZ
[22] = test system: Micrococcus luteus; test: Antibacterial activity against Micrococcus luteus after 24 hrs by MTT dye based microdilution method; assay type: functional
[23] = Antioxidant activity assessed as DPPH free radical scavenging activity at 2.5 mg/ml incubated for 20 mins in dark (reference value: 1 to 9%); assay type: functional
[24] = test system: Staphylococcus aureus; test: Bactericidal activity against Staphylococcus aureus ATCC 6538 after 48 hrs by MTT dye based microdilution method; assay type: functional; conditions: ATCC 6538, 48 h
[25] = Antioxidant activity assessed as ABTS radical scavenging activity at 1 mg/ml incubated for 2 hrs in dark by spectrophotometric analysis (reference value: 1 to 9%); assay type: functional
[26] = Antioxidant activity assessed as ABTS radical scavenging activity at 2 mg/ml incubated for 2 hrs in dark by spectrophotometric analysis (reference value: 1 to 9%); assay type: functional
[27] = test system: Salmonella enteritidis; test: Bactericidal activity against Salmonella enterica serotype Enteritidis ATCC 43972 after 48 hrs by MTT dye based microdilution method; assay type: functional, Salmonella enterica subsp. enterica serovar Enteritidis; conditions: ATCC 43972, 48 h
[28] = test system: Klebsiella pneumoniae; test: Antibacterial activity against Klebsiella pneumoniae assessed as diameter of inhibition zone at 125 mg/ml by agar well diffusion method; assay type: functional; conditions: read-out: DIZ
[29] = Antioxidant activity assessed as reduction in beta-carotene/linoleic acid bleaching activity at 2 mg/ml after 2 hrs by spectrophotometric method (reference value: 1 to 8%); assay type: functional; design: scale not given: the % may be the effect or the level left
[30] = test system: Bacillus subtilis; test: Antibacterial activity against Bacillus subtilis JN934392 assessed as diameter of inhibition zone at 125 mg/ml by agar well diffusion method; assay type: functional; conditions: read-out: DIZ
[31] = test system: Escherichia coli; test: Antibacterial activity against Escherichia coli ATCC 25922 assessed as diameter of inhibition zone at 125 mg/ml by agar well diffusion method; assay type: functional
[32] = test system: Klebsiella pneumoniae; test: Antibacterial activity against Klebsiella pneumoniae after 24 hrs by MTT dye based microdilution method; assay type: functional
[33] = Antioxidant activity assessed as reduction in beta-carotene/linoleic acid bleaching activity at 2.5 mg/ml after 2 hrs by spectrophotometric method (reference value: 1 to 8%); assay type: functional; design: scale not given: the % may be the effect or the level left
[34] = test system: Bacillus cereus; test: Antibacterial activity against Bacillus cereus JN934390 after 24 hrs by MTT dye based microdilution method; assay type: functional; conditions: JN934390, 24 h
[35] = test system: Bacillus cereus; test: Bactericidal activity against Bacillus cereus JN934390 after 48 hrs by MTT dye based microdilution method; assay type: functional; conditions: JN934390, 48 h
[36] = test system: Micrococcus luteus; test: Antibacterial activity against Micrococcus luteus assessed as diameter of inhibition zone at 125 mg/ml by agar well diffusion method; assay type: functional; conditions: read-out: DIZ
[37] = Antioxidant activity assessed as reduction in beta-carotene/linoleic acid bleaching activity at 0.5 mg/ml after 2 hrs by spectrophotometric method (reference value: 1 to 8 %); assay type: functional; design: scale not given: the % may be the effect or the level left

| SMILES | IC50 [4] [µg/mL] | IC50 [9] [µg/mL] | IC50 [10] [µg/mL] | Activity [4] | Activity [5] [%] | Activity [6] [%] | Activity [7] [%] | Activity [8] [%] | Activity [11] [%] | Activity [13] [%] | Activity [15] [%] | Activity [16] [%] | Activity [18] [%] | Activity [23] [%] | Activity [25] [%] | Activity [26] [%] | Activity [29] [%] | Activity [33] [%] | Activity [37] [%] | also measured |
| --- | --- | --- | --- | --- | --- | --- | --- | --- | --- | --- | --- | --- | --- | --- | --- | --- | --- | --- | --- | --- |
| COc1ccc(N2C(=O)[C@H]3[C@H](ON4[C@@H]3C(=O)N(C)[C@@]43C[C@H](C)CC[C@H]3C(C)C)C2=O)cc1 | 1120 (≈ 2.54 mM) | 480 (≈ 1.09 mM) | 990 (≈ 2.24 mM) | Dose-dependent effect | 61.7 | 48.1 | 68.2 | 67.7 | 50 | 48.9 | 75.1 | 32.9 | 71.5 | 65.3 | 61 | 68.9 | 55.7 | 59.3 | 44.5 | MIC [1]: 12500 µg/mL (≈ 28.3 mM); zone of inhibition at 125000 µg/mL [2]: 12.7 mm; MIC [3]: 3120 µg/mL (≈ 7.07 mM); MIC [12]: 6250 µg/mL (≈ 14.2 mM); zone of inhibition at 125000 µg/mL [14]: 11 mm; MBC [17]: 50000 µg/mL (≈ 113 mM); zone of inhibition at 125000 µg/mL [19]: 9.66 mm; MIC [20]: 6250 µg/mL (≈ 14.2 mM); zone of inhibition at 125000 µg/mL [21]: 15 mm; MIC [22]: 12500 µg/mL (≈ 28.3 mM); MBC [24]: 50000 µg/mL (≈ 113 mM); MBC [27]: 50000 µg/mL (≈ 113 mM); zone of inhibition at 125000 µg/mL [28]: 9 mm; zone of inhibition at 125000 µg/mL [30]: 11.3 mm; diameter of the inhibition zone (DIZ) [31]: inactive; MIC [32]: 12500 µg/mL (≈ 28.3 mM); MIC [34]: 6250 µg/mL (≈ 14.2 mM); MBC [35]: 50000 µg/mL (≈ 113 mM); zone of inhibition at 125000 µg/mL [36]: 10 mm |
| Cc1cccc(N2C(=O)[C@H]3[C@H](ON4[C@@H]3C(=O)N(C)[C@@]43C[C@H](C)CC[C@H]3C(C)C)C2=O)c1 | 1880 (≈ 4.42 mM) | 2700 (≈ 6.35 mM) | 1930 (≈ 4.54 mM) | Dose-dependent effect | 49.9 | 38.7 | 73.8 | 65.8 | 39 | 16.1 | 52.4 | 26.8 | 47.7 | 57.5 | 25.8 | 35.3 | 43.6 | 57.6 | 25 | – |

More lines, main results first:

| IC50 [4] [µg/mL] | IC50 [9] [µg/mL] | IC50 [10] [µg/mL] | SMILES | Activity [4] | Activity [5] [%] | Activity [6] [%] | Activity [7] [%] | Activity [8] [%] | Activity [11] [%] | Activity [13] [%] | Activity [15] [%] | Activity [16] [%] | Activity [18] [%] | Activity [23] [%] | Activity [25] [%] | Activity [26] [%] | Activity [29] [%] | Activity [33] [%] | Activity [37] [%] | also measured |
| --- | --- | --- | --- | --- | --- | --- | --- | --- | --- | --- | --- | --- | --- | --- | --- | --- | --- | --- | --- | --- |
| – | 300 (≈ 1.2 mM) | – | Cc1c(C)c2c(c(C)c1O)CCC(C)(C(=O)O)O2 (stereo not drawn) [TROLOX] | – | – | – | – | – | – | 82.1 | 91.8 | – | 90.8 | – | 85.5 | 89.2 | – | – | – | – |
| 1550 (≈ 4.62 mM) | 1500 (≈ 4.47 mM) | – | CC(C)[C@@H]1CC[C@@H](C)C[C@@]12N(C)C(=O)[C@@H]1[C@H]3C(=O)NC(=O)[C@H]3ON12 | Dose-dependent effect | 58.7 | 39.3 | 80.3 | 47.2 | 35.6 | 23.5 | 72 | 21.6 | 70 | 67.2 | 42.6 | 57.2 | 37.1 | 38 | 25.9 | – |
| 720 (≈ 3.27 mM) | – | 930 (≈ 4.22 mM) | Cc1cc(C(C)(C)C)c(O)c(C(C)(C)C)c1 [BUTYLATED HYDROXYTOLUENE] | – | 84.8 | 69.2 | 85.8 | 79.2 | 52.3 | – | – | 33.8 | – | 85.2 | – | – | 65.9 | 75.1 | 39.6 | – |
